Measurements from patent US20050137251A1, “Dexanabinol and dexanabinol analogs regulate inflammation related genes” (priority 2002, published 2005).

Assays:
IL-1β secretion = IL-1β secretion in LPS activated macrophages; type: cell-based; conditions: Mus musculus, Macrophage, read-out: IC50 for inhibition of IL-1β secretion
From the text: The technique used to quantify the amount of a given protein in a liquid sample, either tissue culture supernatant or body fluid, is based on Enzyme Linked ImmunoSorbent Assay (ELISA) methodology. Either commercially available or established in house, the assay is based on the capture of the protein of interest by specific antibodies bound to the bottom of an ELISA plate well. Unbound material is washed away, the captured protein is then exposed to a secondary antibody generally labeled with horseradish peroxidase (HRP) or alkaline phosphatase (ALP). Again the unbound material is washed away, the samples are then incubated with the appropriate substrate yielding a colorimetric reaction. The reaction is stopped and reading is carried out in a spectrophotometer at the appropriate wavelength. Samples are tested at least in duplicate and the appropriate standard curve, consisting of serial dilutions of the recombinant target protein, is incorporated on each plate. Concentration of the protein in the sample is calculated from the standard curve.
RAW 264.7 macrophages, a mouse cell line (ATCC # TIB 71), were grown in Dulbecco's modified Eagle's medium (DMEM) with 4 mM L-glutamine adjusted to contain 1.5 g/L sodium bicarbonate, 4.5 g/L glucose, and 10% heat inactivated fetal bovine serum. […]

[1] = tested on: MPTP model of neurodegeneration; assay: MPTP long-term model: rotarod functional outcome and mortality; type: in vivo, mice
Description: The mice (C57/BL male mice, average weight 30 g, Harlan, Israel) were administered i.p. with MPTP (Sigma, USA) (40 mg/kg, 5 ml/kg) in saline (Teva Medical, Israel) at 2 weeks interval for four times. The test compounds and controls were injected i.p. once just before the first MPTP administration at a volume dose of 5 ml/kg. Dexanabinol was tested at 20 mg/kg and PRS-211,220 was tested at 5 mg/kg. Each treatment group was composed of at least fourteen animals.
Seven days following each MPTP injection, the animals were submitted to a functional test using the rotarod apparatus as described by Rozas et al. (Rozas G. et al., J. of Neuroscience Methods 83: 165-75, 1998). The performance of the animals in the rotarod system, which measures overall locomotor ability, reflects their ability to achieve functions generally affected in PD. The animals were trained for 4 days before beginning the experiment. Their task was to stay on the accelerating rod without falling for 12 minutes (3 minutes at each speed). The tested speeds were: 15, 19, 23 and 27 rpm. Animal performance on the rod was scored as follows: each animal could obtain a maximum of 3 points (1 for each minute) for full walking on the rod at each speed. […]
Another parameter that was measured in this experiment is mortality, which was relatively high in this model.

iNOS gene expression = iNOS gene expression in MCAo mice brains; conditions: 5 mg/kg i.v., 18 hrs following MCAo
COX-2 gene expression = COX-2 gene expression in LPS stimulated RAW 264.7 cells, real-time RT-PCR; type: cell-based, mouse; conditions: 10 μM, 2.5 hrs after LPS activation
Description: RAW 264.7 macrophages, a mouse cell line (ATCC # TIB 71), were grown in Dulbecco's modified Eagle's medium (DMEM) with 4 mM L-glutamine adjusted to contain 1.5 g/L sodium bicarbonate, 4.5 g/L glucose, and 10% heat inactivated fetal bovine serum. Cells were grown in tissue culture flasks and seeded at appropriate density into 24 wells tissue culture plates. 0.5×10^6 Raw cells in one milliliter were stimulated with 2 μg/ml Lipopolysaccharide E. coli 055:B5 (DIFCO Laboratories). The mouse macrophages were pre-treated for one hour with controls or 10 μM of dexanabinol and its analogs, unless indicated otherwise, and later on activated with LPS.
The results of this experiment are expressed as fold activation of COX-2 over non-activated macrophages, after normalization to cyclophilin A expression. When cells are treated with vehicle only we observe a maximal 6-fold increase in COX-2 expression. A decrease of 67% in RNA levels of COX-2 is observed when the activation is carried out in presence of 10 μM dexanabinol.
To test if COX-2 is the sole gene whose transcription is affected by compounds of the invention, additional genes were further analyzed by real-time RT-PCR in the above-described model of activated macrophages. This part of the study was performed with PRS-211,092 at doses up to 20 μM.

[2] = tested on: TH-immunoreactive cells at the SNpc (MPTP-induced dopaminergic toxicity); assay: MPTP short-term model: TH immunoreactive cells at the SNpc; type: in vivo, mice
Description: The mice (C57/BL male mice, average weight 30 g, Harlan, Israel) were administered i.p. with 4 injections of MPTP (Sigma, USA) (20 mg/kg, 5 ml/kg) in saline (Teva Medical Israel) at 2 hours interval on day 1. The test compounds and vehicle control (cremophor:ethanol diluted in saline) were injected i.p. once just before the first MPTP administration at a volume dose of 5 ml/kg. Dexanabinol was tested at 10, 20, and 30 mg/kg and PRS-211,220 was tested at 0.5, 1, and 5 mg/kg. Each treatment group was composed of at least seven animals. Seven days following the MPTP treatment the animals are euthanized by i.p. administration of 100 mg/kg pentobarbitone sodium (CTS, Israel) and their brains are removed for tyrosine hydroxylase (TH) detection using immunohistochemistry.
Brains were fixed by immersion in 4% formaldehyde for at least 72 hours. The brains were then washed with PBS and transferred to 30% sucrose in PBS until they sank. […] Quantitative analysis was carried out by counting the number of TH-immunoreactive cells/mm^2 at the widest area of the SNpc.
Treatment of the animals with the test compounds results in a dose-dependent preservation of the TH-IR cells. Percent preservation is calculated by dividing the number of rescued cells (treatment-MPTP) by the maximal possible number of rescued cells (saline-MPTP). […]

For `CCCCCCC(C)(C)c1cc(O)c2c(c1)OC(C)(C)[C@H]1CC=C(CO)C[C@H]21` [dexanabinol, 1,1-dimethylheptyl-(3S,4S)-7-hydroxy-Δ^6-tetrahydrocannabinol], the IC50 (IL-1β secretion) was 6 µM, the “Rotarod functional outcome vs vehicle” value ([1]; 20 mg/kg i.p., fourth session) was “positive trend” and the Mortality ([1]; 20 mg/kg, MPTP only 69%) was 11%. The “Modulation of iNOS gene expression” value (iNOS gene expression) was “not modulated”, the “Decrease in RNA levels of COX-2” value (COX-2 gene expression) was 67% and the “Preservation of TH-IR cells” value ([2]; 20 mg/kg i.p., seven days after MPTP) was “about 25%”. The “Effect of increasing the dose on TH-IR cell preservation” value ([2]; 30 mg/kg vs 20 mg/kg) was “no significant effect”.
